Marks after values point to notes of the source that are not given here.
Columns and labels:
[1] = Predefined clinical and routine laboratory endpoints in adult dengue patients; type: in vivo, human; details: for Maximum percentage increase of hematocrit level, Mean / Maximum percentage increase of hematocrit level, Median (IQR): from baseline; for Minimum quality of life score, Mean / Minimum quality of life score, Median (IQR): visual analogue scale 0-100
Excerpt: Key viremia endpoints of the study were as follows: area under the log-transformed viremia curve (AUC) from first dose to the end of study day 7 (study hour 168), calculated on the basis of the trapezoidal rule with values below the limit of detection replaced by half of the detection limit; time to first viremia level of <1000 copies/mL until study day 7; and time to the first negative NS1 test result. Other predefined key endpoints included fever clearance time, defined as the time from the start of treatment to the start of the first 48-hour period during which axillary temperature remained <37.5°C; maximum hematocrit level; maximum percentage increase of hematocrit level from baseline; platelet count nadir; and lowest recorded quality of life score.
Time to event endpoints were compared between treatment groups on the basis of Cox regression and continuous endpoints on the basis of linear regression. Analyses were adjusted for the predose value of the respective endpoint; viremia and NS1 endpoints were additionally adjusted for dengue serotype. For all endpoints, we report P values of a trend test for a dose-response relationship with treatment entered as a continuous variable with values 0 (placebo), 1 (low-dose), and 2 (high-dose) into the regression model.

[2] = Safety and tolerability, adverse events in adult dengue patients; details: for safety and tolerability: 1500 mg or 3000 mg orally twice daily for 5 days, adult dengue patients
Method: Randomization to treatment group was by computer-generated randomization sequencing in blocks of 2. Balapiravir was formulated in a 500-mg film-coated tablet. The placebo consisted of an identical looking tablet containing excipient only. All balapiravir and placebo tablets were provided by F. Hoffmann-La Roche. Patients in cohort 1 (n = 20) received 1500 mg of balapiravir or an identical placebo orally every 12 hours for 5 days (10 doses). The decision to dose escalate (to 3000 mg) was made after review of the partially unblinded group mean clinical and laboratory data acquired from patients in cohort 1. Patients in cohort 2 (n = 44) received 3000 mg of balapiravir or placebo orally twice a day for 5 days (10 doses).
Eligible patients remained in clinic during a 7-day in-patient period then returned for follow-up visits on study days 14, 28, and 84. During the inpatient period, patient vital signs were assessed every 6 hours and routine laboratory investigations were performed daily or as clinically indicated. Safety and tolerability were monitored at regular intervals and included physical examinations, vital signs, electrocardiograms, clinical laboratory assessments, incidence of clinical adverse events, and concomitant medications. Any clinically significant abnormal laboratory test results were followed up until resolved or stabilized. A quality of life assessment, using a questionnaire and a visual analog scale, was implemented on study days 1, 3, 5, 7, 14, 28, and 84.

[3] = High-dose (3000 mg twice a day, 5 days), n = 22
[4] = Low-dose (1500 mg twice a day, 5 days), n = 10
[5] = High dose (3000 mg twice a day, 5 days), n=22
[6] = Low dose (1500 mg twice a day, 5 days), n=10

With `CC(C)C(=O)OC[C@@]1(N=[N+]=[N-])O[C@@H](n2ccc(N)nc2=O)[C@H](OC(=O)C(C)C)[C@@H]1OC(=O)C(C)C` [Balapiravir] the “effect on fever clearance time, clinical signs and routine laboratory findings” value ([1]; 1500 mg or 3000 mg twice daily for 5 days versus placebo) was “did not affect”, the “Maximum ALT level, Mean” value [1, 3] was 75.2 IU/L and the “Maximum ALT level, Median (IQR)” value [1, 3] was 68.5 (33.3–104.5) IU/L. The “Maximum AST level, Mean” value [1, 3] was 118.4 IU/L, the “Maximum AST level, Median (IQR)” value [1, 3] was 108.0 (45.0–151.5) IU/L and the “Maximum INR, Mean” value [1, 3] was 1.27. The “Maximum INR, Median (IQR)” value [1, 3] was 1.17 (1.09–1.22), the “Maximum aPTT, Mean” value [1, 3] was 41.8 s and the “Maximum aPTT, Median (IQR)” value [1, 3] was 41.8 (38.3–44.1) s. The “Maximum recorded hematocrit level, Mean” value [1, 3] was 44.6%, the “Maximum recorded hematocrit level, Median (IQR)” value [1, 3] was 45.1 (41.8–46.1) % and the “Median fever clearance time (IQR)” value [1, 3] was 3 (2–4) d. For the same compound, the “Minimum fibrinogen level, Mean” value [1, 3] was 1.88 g/L, the “Minimum fibrinogen level, Median (IQR)” value [1, 3] was 1.86 (1.60–2.03) g/L and the “Minimum platelet count, Mean” value [1, 3] was 54.4 10^9 cells/L. For the same compound, the “Minimum platelet count, Median (IQR)” value [1, 3] was 52 (25.5–64.8) 10^9 cells/L, the “Maximum percentage increase of hematocrit level, Mean” value [1, 3] was 2.6% and the “Maximum percentage increase of hematocrit level, Median (IQR)” value [1, 3] was 1.2 (−4.1–9.2) %. The “Minimum quality of life score, Mean” value [1, 3] was 74.45, the “Minimum quality of life score, Median (IQR)” value [1, 3] was 77.5 (67.8–82.0) and the “Maximum ALT level, Mean” value [1, 4] was 96.3 IU/L. For the same compound, the “Maximum ALT level, Median (IQR)” value [1, 4] was 97.5 (58.0–128.8) IU/L, the “Maximum AST level, Mean” value [1, 4] was 143.6 IU/L and the “Maximum AST level, Median (IQR)” value [1, 4] was 157.5 (116.5–171.5) IU/L. For the same compound, the “Maximum INR, Mean” value [1, 4] was 1.17, the “Maximum INR, Median (IQR)” value [1, 4] was 1.16 (1.05–1.26) and the “Maximum aPTT, Mean” value [1, 4] was 41.3 s. For the same compound, the “Maximum aPTT, Median (IQR)” value [1, 4] was 40.6 (39.6–43.1) s, the “Maximum recorded hematocrit level, Mean” value [1, 4] was 46.7% and the “Maximum recorded hematocrit level, Median (IQR)” value [1, 4] was 45.8 (43.8–49.3) %. For the same compound, the “Median fever clearance time (IQR)” value [1, 4] was 3 (2–4) d, the “Minimum fibrinogen level, Mean” value [1, 4] was 1.94 g/L and the “Minimum fibrinogen level, Median (IQR)” value [1, 4] was 2.08 (1.68–2.25) g/L. The “Minimum platelet count, Mean” value [1, 4] was 26.3 10^9 cells/L, the “Minimum platelet count, Median (IQR)” value [1, 4] was 23 (16.5–33.0) 10^9 cells/L and the “Maximum percentage increase of hematocrit level, Mean” value [1, 4] was 11.5%. For the same compound, the “Maximum percentage increase of hematocrit level, Median (IQR)” value [1, 4] was 11.8 (3.1–15.3) %, the “Minimum quality of life score, Mean” value [1, 4] was 78.3 and the “Minimum quality of life score, Median (IQR)” value [1, 4] was 77.0 (69.8–89.0). The “reported serious adverse events (SAEs)” value ([2]; 1500 mg balapiravir arm) was 1, the safety and tolerability [2] was “safe and well-tolerated” and the safety and tolerability ([2]; listed as balapiravir) was “well tolerated”. For the same compound, the “reported serious adverse events (SAEs)” value ([2]; 3000 mg balapiravir arm) was 1, the “ABDOMINAL PAIN” value [2, 5] was 3 (13.64%) no.pt. (%) and the “ABNORMAL INR” value [2, 5] was 1 (4.55%) no.pt. (%). For the same compound, the “ALTERATION OF TASTE” value [2, 5] was 0 (0%) no.pt. (%), the ANOREXIA [2, 5] was 1 (4.55%) no.pt. (%) and the “ANY EVENT - no (%) patients with at least one event” value [2, 5] was 19 (86.36%) no.pt. (%). The “ANY EVENT - no of events” value [2, 5] was 65, the BRUISING [2, 5] was 2 (9.09%) no.pt. (%) and the COUGH [2, 5] was 4 (18.18%) no.pt. (%). The “DECREASE OF FIBRINOGEN” value [2, 5] was 4 (18.18%) no.pt. (%), the DIARRHOEA [2, 5] was 8 (36.36%) no.pt. (%) and the DYSPEPSIA [2, 5] was 1 (4.55%) no.pt. (%). For the same compound, the “ELEVATED ALT” value [2, 5] was 0 (0%) no.pt. (%), the “ELEVATED AST” value [2, 5] was 0 (0%) no.pt. (%) and the EPISTAXIS [2, 5] was 0 (0%) no.pt. (%). The FLATULENCE [2, 5] was 0 (0%) no.pt. (%), the “GUM BLEEDING” value [2, 5] was 6 (27.27%) no.pt. (%) and the HEADACHE [2, 5] was 5 (22.73%) no.pt. (%). The HEMATEMESIS [2, 5] was 0 (0%) no.pt. (%), the HEMATURIA [2, 5] was 1 (4.55%) no.pt. (%) and the HEMOPTYSIS [2, 5] was 0 (0%) no.pt. (%). The HYPOALBUMINEMIA [2, 5] was 1 (4.55%) no.pt. (%), the “ITCHY RASH ON CHEEK, AND FOREHEAD” value [2, 5] was 0 (0%) no.pt. (%) and the “NARROW PULSE PRESSURE” value [2, 5] was 0 (0%) no.pt. (%). The NAUSEA [2, 5] was 2 (9.09%) no.pt. (%), the PETECHIAE [2, 5] was 6 (27.27%) no.pt. (%) and the “PROLONGED APTT” value [2, 5] was 7 (31.82%) no.pt. (%). The PROTEINURIA [2, 5] was 0 (0%) no.pt. (%), the PRURITIS [2, 5] was 0 (0%) no.pt. (%) and the “RETINAL INJURY” value [2, 5] was 0 (0%) no.pt. (%). For the same compound, the “SORE THROAT” value [2, 5] was 0 (0%) no.pt. (%), the VERTIGO [2, 5] was 0 (0%) no.pt. (%) and the VOMIT [2, 5] was 2 (9.09%) no.pt. (%). The THROMBOCYTOPENIA ([2]; High dose (3000 mg twice a day, 5 days), n=22, one patient in this group had a SAE) was 11 (50%) ^a no.pt. (%), the “ABDOMINAL PAIN” value [2, 6] was 0 (0%) no.pt. (%) and the “ABNORMAL INR” value [2, 6] was 0 (0%) no.pt. (%). The “ALTERATION OF TASTE” value [2, 6] was 0 (0%) no.pt. (%), the ANOREXIA [2, 6] was 2 (20%) no.pt. (%) and the “ANY EVENT - no (%) patients with at least one event” value [2, 6] was 8 (80%) no.pt. (%). The “ANY EVENT - no of events” value [2, 6] was 30, the BRUISING [2, 6] was 0 (0%) no.pt. (%) and the COUGH [2, 6] was 0 (0%) no.pt. (%). The “DECREASE OF FIBRINOGEN” value [2, 6] was 1 (10%) no.pt. (%), the DIARRHOEA [2, 6] was 4 (40%) no.pt. (%) and the DYSPEPSIA [2, 6] was 1 (10%) no.pt. (%). For the same compound, the “ELEVATED ALT” value [2, 6] was 0 (0%) no.pt. (%), the “ELEVATED AST” value [2, 6] was 0 (0%) no.pt. (%) and the EPISTAXIS [2, 6] was 0 (0%) no.pt. (%). For the same compound, the FLATULENCE [2, 6] was 0 (0%) no.pt. (%), the “GUM BLEEDING” value [2, 6] was 0 (0%) no.pt. (%) and the HEADACHE [2, 6] was 2 (20%) no.pt. (%). For the same compound, the HEMATEMESIS [2, 6] was 0 (0%) no.pt. (%), the HEMATURIA [2, 6] was 0 (0%) no.pt. (%) and the HEMOPTYSIS [2, 6] was 0 (0%) no.pt. (%). The HYPOALBUMINEMIA [2, 6] was 1 (10%) no.pt. (%), the “ITCHY RASH ON CHEEK, AND FOREHEAD” value [2, 6] was 1 (10%) no.pt. (%) and the NAUSEA [2, 6] was 0 (0%) no.pt. (%). For the same compound, the PETECHIAE [2, 6] was 4 (40%) no.pt. (%), the “PROLONGED APTT” value [2, 6] was 2 (20%) no.pt. (%) and the PROTEINURIA [2, 6] was 1 (10%) no.pt. (%). The PRURITIS [2, 6] was 1 (10%) no.pt. (%), the “RETINAL INJURY” value [2, 6] was 0 (0%) no.pt. (%) and the “SORE THROAT” value [2, 6] was 0 (0%) no.pt. (%). The THROMBOCYTOPENIA [2, 6] was 4 (40%) no.pt. (%), the VERTIGO [2, 6] was 1 (10%) no.pt. (%) and the VOMIT [2, 6] was 4 (40%) no.pt. (%). The “NARROW PULSE PRESSURE” value ([2]; Low dose (1500 mg twice a day, 5 days), n=10, one patient in this group had a SAE) was 1 (10%) ^a no.pt. (%).
